In assay [1] the target is Alpha-1 adrenergic receptor (Bos taurus). The experiment in a line: Binding affinity against alpha-1 adrenergic receptor from calf cerebral cortex, using [3H]prazosin as the radioligand.
For assay [2] the target is unchanged. Described as above. The source holds these as a separate data set.

`Cc1ccc(N(CC2=NCCN2)C2CCCCC2)cc1` [Cyclohexyl-(4,5-dihydro-1H-imidazol-2-ylmethyl)-p-tolyl-amine] had a Ki in assay [1] of 424 nM.

Turning to `Cc1ccc(N(C)CC2=NCCN2)cc1` [(4,5-Dihydro-1H-imidazol-2-ylmethyl)-methyl-p-tolyl-amine], affinity in assay [2] was put at a Ki of 150 nM.

In the case of `Cc1ccc(NCC2=NCCN2)cc1` [(4,5-Dihydro-1H-imidazol-2-ylmethyl)-p-tolyl-amine], in assay [1], affinity was put at a Ki of 230 nM.

In assay [1], `CCN(CC1=NCCN1)c1ccc(C)cc1` [(4,5-Dihydro-1H-imidazol-2-ylmethyl)-ethyl-p-tolyl-amine] registered a Ki of 300 nM.

For the molecule `Oc1cccc(NCC2=NCCN2)c1` [3-[(4,5-Dihydro-1H-imidazol-2-ylmethyl)-amino]-phenol], in assay [2], the affinity, expressed as Ki, was 380 nM.

The values above are taken from BindingDB's records for doi:10.1021/jm00366a022 (1984).
